Data: paper PMC7204524 (Tetrahedron, 2020)

Molecular target: T1, T. brucei methionyl-tRNA synthetase (TbMetRS) (Trypanosoma brucei, UniProt Q38C91)
T1 sequence (Q38C91 1-773): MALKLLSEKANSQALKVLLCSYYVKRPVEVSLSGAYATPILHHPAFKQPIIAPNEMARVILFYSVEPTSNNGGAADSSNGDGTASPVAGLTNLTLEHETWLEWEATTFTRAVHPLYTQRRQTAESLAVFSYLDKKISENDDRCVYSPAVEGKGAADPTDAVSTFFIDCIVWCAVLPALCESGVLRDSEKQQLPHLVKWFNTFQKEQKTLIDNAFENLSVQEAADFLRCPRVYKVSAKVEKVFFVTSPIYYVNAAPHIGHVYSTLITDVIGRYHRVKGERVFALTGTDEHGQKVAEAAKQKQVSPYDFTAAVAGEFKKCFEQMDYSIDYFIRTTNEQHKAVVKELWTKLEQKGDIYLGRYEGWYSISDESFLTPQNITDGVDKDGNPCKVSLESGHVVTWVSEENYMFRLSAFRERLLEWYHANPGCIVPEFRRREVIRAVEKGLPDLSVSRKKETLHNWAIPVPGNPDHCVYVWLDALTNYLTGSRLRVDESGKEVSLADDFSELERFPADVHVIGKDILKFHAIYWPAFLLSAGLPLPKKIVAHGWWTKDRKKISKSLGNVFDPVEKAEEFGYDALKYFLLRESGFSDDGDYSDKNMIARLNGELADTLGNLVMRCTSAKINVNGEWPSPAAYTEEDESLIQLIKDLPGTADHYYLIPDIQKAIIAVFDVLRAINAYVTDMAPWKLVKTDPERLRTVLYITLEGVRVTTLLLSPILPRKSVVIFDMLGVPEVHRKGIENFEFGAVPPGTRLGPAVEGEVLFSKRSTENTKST
Assay: colorimetric pyrophosphatase-coupled inhibition assay
Type: biochemical

Compound: C[C@@H](O)[C@@H]1C(=O)N(CCc2c[nH]c3ccccc23)CC[C@@H]1N(C)Cc1cc(Cl)cc(Cl)c1 (racemic) [14a, (3R,4S)-1-(2-(1H-Indol-3-yl)ethyl)-4-((3,5-dichlorobenzyl)(methyl)amino)-3-((R)-1-hydroxyethyl)piperidin-2-one]
- %: 15–30 % inhibition at 200 μM
